The values below come from patent US20230295118A1 (EnhancedBio Inc., priority 2022, published 2023).

Structures are written as SMILES. Some results are limits rather than exact numbers.

By DC50 is commonly meant the concentration at which degradation of the target reaches its halfway point. What is called Dmax is the greatest extent of degradation seen. A high value points to a fuller loss of target.

Holding throughout (assay type): cell-based
The test system of experiment [1] is mantle cell lymphoma cell (Mino or JeKo-1). The experiment can be described thus: Antiproliferative effect, MTS cell viability assay. Conditions: 72 h; for IC50: mantle cell lymphoma cell (Mino or JeKo-1), MTS assay, read-out: IC50 (anti-proliferation). A digest of the protocol: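 Mino cells treated with compounds at 0, 0.0001, 0.001, 0.01, 0.1, 1 μM for 72 h; palbociclib and abemaciclib as positive controls. Viability by MTS, formazan absorbance read at 490 nm.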
On the technique in general: Formazan colour is commonly taken as a measure of viable cells.

The target of experiment [2] is T1, CDK4 (Homo sapiens, UniProt P11802).
T1 construct: endogenous in cells
Briefly: CDK4 degradation (DC50, Dmax).

Experiment [3] has as its target T2, CDK6 (Homo sapiens, UniProt Q00534).
T2 construct: endogenous in cells
The experiment can be described thus: CDK6 degradation (DC50, Dmax).

T1 sequence (P11802 whole entry): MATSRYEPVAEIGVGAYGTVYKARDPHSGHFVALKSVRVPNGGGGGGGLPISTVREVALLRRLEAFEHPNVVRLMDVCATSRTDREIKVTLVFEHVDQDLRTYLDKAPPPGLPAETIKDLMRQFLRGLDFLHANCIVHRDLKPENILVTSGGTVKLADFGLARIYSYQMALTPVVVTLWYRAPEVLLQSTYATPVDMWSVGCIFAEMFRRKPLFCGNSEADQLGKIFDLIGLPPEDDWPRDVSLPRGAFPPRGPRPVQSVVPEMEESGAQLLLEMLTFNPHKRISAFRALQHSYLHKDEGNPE
T2 sequence (Q00534 whole entry): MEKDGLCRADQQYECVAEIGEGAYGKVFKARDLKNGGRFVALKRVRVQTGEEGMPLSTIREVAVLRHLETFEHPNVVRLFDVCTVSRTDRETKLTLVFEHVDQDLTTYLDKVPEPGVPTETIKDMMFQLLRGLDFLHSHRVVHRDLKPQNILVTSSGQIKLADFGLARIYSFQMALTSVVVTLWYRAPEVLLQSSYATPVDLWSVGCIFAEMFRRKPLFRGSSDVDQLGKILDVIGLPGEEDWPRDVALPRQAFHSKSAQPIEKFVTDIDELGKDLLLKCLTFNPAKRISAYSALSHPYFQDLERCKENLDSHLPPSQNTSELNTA

For `Cc1nc2c(F)cc(-c3nc(Nc4ccc(CN5CCN(C(=O)C6CN(c7ccc(C(=O)NC8CCC(=O)NC8=O)cc7)C6)CC5)cn4)ncc3F)cc2n1C(C)C` (stereo not shown) [Compound 137, N-(2,6-dioxopiperidin-3-yl)-4-(3-(4-((6-((5-fluoro-4-(4-fluoro-1-isopropyl-2-methyl-1H-benzo[d]imidazol-6-yl)pyrimidin-2-yl)amino)pyridin-3-yl)methyl)piperazine-1-carbonyl)azetidin-1-yl)benzamide], in experiment [1], the IC50 is 50 to 200 nM. Further, the DC50 in experiment [2] and in experiment [3] was 50 to 200 nM in each case. Further, the Dmax in experiment [2] and in experiment [3] was above 60% each time.
Consider `CC(=O)c1c(C)c2cnc(Nc3ccc(N4CCN(CCCNc5cccc6c5C(=O)N(C5CCC(=O)NC5=O)C6=O)CC4)cn3)nc2n(C2CCCC2)c1=O` (stereo not shown) [Compound 62, 4-((3-(4-(6-((6-acetyl-8-cyclopentyl-5-methyl-7-oxo-7,8-dihydropyrido[2,3-d]pyrimidin-2-yl)amino)pyridin-3-yl)piperazin-1-yl)propyl)amino)-2-(2,6-dioxopiperidin-3-yl) isoindoline-1,3-dione], for which, in experiment [1], the IC50 was below 50 nM. In experiment [2], the half-maximal degradation concentration (DC50) lay within 50 to 200 nM and the Dmax is above 80%. In experiment [3], this compound came in with a DC50 of 50 to 200 nM and a Dmax above 80%.
For `CC(=O)c1c(C)c2cnc(Nc3ccc(N4CCN(CCCCN(C)c5ccc6c(c5)CN(C5CCC(=O)NC5=O)C6=O)CC4)cn3)nc2n(C2CCCC2)c1=O` (stereo not shown) [Compound 60, 3-(5-((4-(4-(6-((6-acetyl-8-cyclopentyl-5-methyl-7-oxo-7,8-dihydropyrido[2,3-d]pyrimidin-2-yl)amino)pyridin-3-yl)piperazin-1-yl)butyl)(methyl)amino)-1-oxoisoindolin-2-yl) piperidine-2,6-dione], the IC50 in experiment [1] was 50 to 200 nM. The DC50 in experiment [2] and in experiment [3] was 50 to 200 nM in each case. The Dmax in experiment [2] and in experiment [3] was above 60% throughout.
On to `CC(=O)c1c(C)c2cnc(Nc3ccc(N4CCN(CCNc5ccc6c(c5)C(=O)N(C5CCC(=O)NC5=O)C6=O)CC4)cn3)nc2n(C2CCCC2)c1=O` (stereo not shown) [Compound 47, 5-((2-(4-(6-((6-acetyl-8-cyclopentyl-5-methyl-7-oxo-7,8-dihydropyrido[2,3-d]pyrimidin-2-yl)amino)pyridin-3-yl)piperazin-1-yl)ethyl)amino)-2-(2,6-dioxopiperidin-3-yl)isoindoline-1,3-dione], for which, in experiment [1], the IC50 was below 50 nM. Moreover, the “inhibition of cell proliferation of Mino cells” value in experiment [1] (Mino cells, 0-1 μM, result in words) is “dose-dependent inhibition of cell proliferation”. Also, in experiment [2], the DC50 is below 50 nM and the Dmax was above 80%. In experiment [3], this compound returned a 50% degradation concentration (DC50) below 50 nM and a Dmax above 80%.
As for `CC(=O)c1c(C)c2cnc(Nc3ccc(N4CCN(CCN(C)c5ccc6c(c5)C(=O)N(C5CCC(=O)NC5=O)C6=O)CC4)cn3)nc2n(C2CCCC2)c1=O` (stereo not shown) [Compound 55, 5-((2-(4-(6-((6-acetyl-8-cyclopentyl-5-methyl-7-oxo-7,8-dihydropyrido[2,3-d]pyrimidin-2-yl)amino)pyridin-3-yl)piperazin-1-yl)ethyl)(methyl)amino)-2-(2,6-dioxopiperidin-3-yl) isoindoline-1,3-dione], the IC50 in experiment [1] is 50 to 200 nM. In experiment [2], this compound registered a DC50 of 50 to 200 nM and a Dmax above 60%. In experiment [3], the DC50 lay within 50 to 200 nM and the Dmax is above 60%.
Turning to `Cc1nc2c(F)cc(-c3nc(Nc4ccc(CN5CCN(CC6CN(c7ccc(NC8CCC(=O)NC8=O)cc7)C6)CC5)cn4)ncc3F)cc2n1C(C)C` (stereo not shown) [Compound 134], the IC50 in experiment [1] was below 50 nM. In experiment [2], this compound gave a DC50 below 50 nM and a Dmax above 80%. In experiment [3], this compound displayed a DC50 below 50 nM and a Dmax above 80%.
Consider `CC(=O)c1c(C)c2cnc(Nc3ccc(N4CCN(CCC5CCN(c6ccc7c(c6)CN(C6CCC(=O)NC6=O)C7=O)CC5)CC4)cn3)nc2n(C2CCCC2)c1=O` (stereo not shown) [Compound 70, 3-(5-(4-(2-(4-(6-((6-acetyl-8-cyclopentyl-5-methyl-7-oxo-7,8-dihydropyrido[2,3-d]pyrimidin-2-yl)amino)pyridin-3-yl)piperazin-1-yl)ethyl)piperidin-1-yl)-1-oxoisoindolin-2-yl) piperidine-2,6-dione], for which the IC50 in experiment [1] fell in the range of 50 to 200 nM. Moreover, the DC50 in experiment [2] and in experiment [3] was 50 to 200 nM throughout. The maximal degradation (Dmax) was above 50% in experiment [2] and above 60% in experiment [3].
On to `CC(=O)c1c(C)c2cnc(Nc3ccc(N4CCN(CC5CN(c6ccc7c(c6)C(=O)N(C6CCC(=O)NC6=O)C7=O)C5)CC4)cn3)nc2n(C2CCCC2)c1=O` (stereo not shown) [Compound 80, 5-(3-((4-(6-((6-acetyl-8-cyclopentyl-5-methyl-7-oxo-7,8-dihydropyrido[2,3-d]pyrimidin-2-yl)amino)pyridin-3-yl)piperazin-1-yl)methyl)azetidin-1-yl)-2-(2,6-dioxopiperidin-3-yl) isoindoline-1,3-dione], for which the IC50 in experiment [1] is below 50 nM. Moreover, in experiment [2], the DC50 is below 50 nM and the Dmax was above 80%. Besides, in experiment [3], the DC50 is below 50 nM and the Dmax is above 80%.
Consider `CC(=O)c1c(C)c2cnc(Nc3ccc(N4CCN(CCCCNc5ccc6c(c5)C(=O)N(C5CCC(=O)NC5=O)C6=O)CC4)cn3)nc2n(C2CCCC2)c1=O` (stereo not shown) [Compound 53, 5-((4-(4-(6-((6-acetyl-8-cyclopentyl-5-methyl-7-oxo-7,8-dihydropyrido[2,3-d]pyrimidin-2-yl)amino)pyridin-3-yl)piperazin-1-yl)butyl)amino)-2-(2,6-dioxopiperidin-3-yl)isoindoline-1,3-dione], for which the IC50 in experiment [1] was below 50 nM. The DC50 in experiment [2] and in experiment [3] was 50 to 200 nM throughout. For the same compound, the Dmax was above 60% in experiment [2] and above 80% in experiment [3].
Consider `CC(=O)c1c(C)c2cnc(Nc3ccc(C4CCN(CC5CN(c6ccc7c(c6)CN(C6CCC(=O)NC6=O)C7=O)C5)CC4)cn3)nc2n(C2CCCC2)c1=O` (stereo not shown) [Compound 126, 3-(5-(3-((4-(6-((6-acetyl-8-cyclopentyl-5-methyl-7-oxo-7,8-dihydropyrido[2,3-d]pyrimidin-2-yl)amino)pyridin-3-yl)piperidin-1-yl)methyl)azetidin-1-yl)-1-oxoisoindolin-2-yl) piperidine-2,6-dione], for which the IC50 in experiment [1] is below 50 nM. In addition, the DC50 in experiment [2] and in experiment [3] was below 50 nM in each case. In addition, the Dmax in experiment [2] and in experiment [3] was above 80% in each case.
With `Cc1nc2c(F)cc(-c3nc(Nc4ccc(CC5CCN(C(=O)C6CN(c7ccc(C(=O)NC8CCC(=O)NC8=O)cc7)C6)CC5)cn4)ncc3F)cc2n1C(C)C` (stereo not shown) [Compound 145, N-(2,6-dioxopiperidin-3-yl)-4-(3-(4-((6-((5-fluoro-4-(4-fluoro-1-isopropyl-2-methyl-1H-benzo[d]imidazol-6-yl)pyrimidin-2-yl)amino)pyridin-3-yl)methyl)piperidine-1-carbonyl)azetidin-1-yl)benzamide], the IC50 in experiment [1] was below 50 nM. In experiment [2], this compound registered a DC50 of 50 to 200 nM and a Dmax above 60%. In experiment [3], this compound yielded a DC50 of 50 to 200 nM and a Dmax above 60%.
With `CC(=O)c1c(C)c2cnc(Nc3ccc(N4CCN(C5CCN(C(=O)N6CCC(N7CCN(c8ccc9c(c8)C(=O)N(C8CCC(=O)NC8=O)C9=O)CC7)CC6)CC5)CC4)cn3)nc2n(C2CCCC2)c1=O` (stereo not shown) [Compound 88, 5-(4-(1-(4-(4-(6-((6-acetyl-8-cyclopentyl-5-methyl-7-oxo-7,8-dihydropyrido[2,3-d]pyrimidin-2-yl)amino)pyridin-3-yl)piperazin-1-yl)piperidine-1-carbonyl)piperidin-4-yl)piperazin-1-yl)-2-(2,6-dioxopiperidin-3-yl) isoindoline-1,3-dione], the IC50 in experiment [1] was above 200 nM. Besides, in experiment [2], the DC50 is above 200 nM and the Dmax was above 60%. Further, in experiment [3], the DC50 is above 200 nM and the Dmax is above 50%.
On to `CC(=O)c1c(C)c2cnc(Nc3ccc(N4CCN(C(=O)N5CCC(CN6CCC(c7ccc8c(c7)CN(C7CCC(=O)NC7=O)C8=O)CC6)CC5)CC4)cn3)nc2n(C2CCCC2)c1=O` (stereo not shown) [Compound 18, 3-(5-(1-((1-(4-(6-((6-acetyl-8-cyclopentyl-5-methyl-7-oxo-7,8-dihydropyrido[2,3-d]pyrimidin-2-yl)amino)pyridin-3-yl)piperazine-1-carbonyl)piperidin-4-yl)methyl)piperidin-4-yl)-1-oxoisoindolin-2-yl) piperidine-2,6-dione], for which the IC50 in experiment [1] is above 200 nM. In experiment [2], this compound registered a DC50 above 200 nM and a Dmax above 50%. In experiment [3], this compound yielded a DC50 above 200 nM and a Dmax above 50%.
Take `CC(=O)c1c(C)c2cnc(Nc3ccc(N4CCN(C(=O)N5CCN(c6ccc7c(c6)CN(C6CCC(=O)NC6=O)C7=O)CC5)CC4)cn3)nc2n(C2CCCC2)c1=O` (stereo not shown) [Compound 2, 3-(5-(4-(4-(6-((6-acetyl-8-cyclopentyl-5-methyl-7-oxo-7,8-dihydropyrido[2,3-d]pyrimidin-2-yl)amino)pyridin-3-yl)piperazine-1-carbonyl)piperazin-1-yl)-1-oxoisoindolin-2-yl)piperidine-2,6-dione]: in experiment [1], the IC50 lay within 50 to 200 nM. Also, in experiment [2], the DC50 was above 200 nM and the Dmax is above 60%. In experiment [3], this compound yielded a DC50 above 200 nM and a Dmax above 60%.
As for `Cc1nc2c(F)cc(-c3nc(Nc4ccc(CN5CCN(C6CCN(c7ccc8c(c7)C(=O)N(C7CCC(=O)NC7=O)C8=O)CC6)CC5)cn4)ncc3F)cc2n1C(C)C` (stereo not shown) [Compound 165, 2-(2,6-dioxopiperidin-3-yl)-5-(4-(4-((6-((5-fluoro-4-(4-fluoro-1-isopropyl-2-methyl-1H-benzo[d]imidazol-6-yl)pyrimidin-2-yl)amino)pyridin-3-yl)methyl)piperazin-1-yl)piperidin-1-yl)isoindoline-1,3-dione], the IC50 in experiment [1] is below 50 nM. Moreover, in experiment [2], the DC50 was 50 to 200 nM and the Dmax is above 80%. In addition, in experiment [3], the half-maximal degradation concentration (DC50) is 50 to 200 nM and the Dmax was above 80%.
